Data on one substance can be found in patent US20090186854A1, “S-ALKYLISOTHIOURONIUM DERIVATIVES FOR THE TREATMENT OF INFLAMMATORY DISEASES” (Meditor Pharmaceuticals Ltd., priority 2006, published 2009).

One series deals with healthy male subjects. In words: Phase I clinical trial, safety of escalating doses. The settings on record: 12 healthy male subjects. Format: in vivo, human. Here is the method:
Based on animal toxicological studies and on the accumulated data on human patients, S-ethylisothiouronium diethylphosphate was approved for a Phase I clinical trial. In this study, the pharmacokinetic profile as well as safety of escalating doses (0.6-2.4 mg/kg) of S-ethylisothiouronium diethylphosphate were assessed in 12 healthy male subjects.

The next series deals with rats. In words: Animal toxicological studies (single or repeated dose, LD50).

In the case of S-ethylisothiouronium diethylphosphate, the Adverse events entry in the series with healthy male subjects (doses up to 1.2 mg/kg) is on record as “no recorded adverse events”. For the same substance, the Well tolerated dose result with healthy male subjects (escalating doses 0.6-2.4 mg/kg) is given as “up to 1.2 mg/kg”. Besides, the LD50 result with rats (in rats) was “up to 400 mg/kg”. Besides, the “LD50 relative to therapeutically recommended dose” value in the series with rats (rats LD50 vs therapeutically recommended dose of 0.6-1.2 mg/kg) is on record as 300-400 fold.
